Where “and” joins values, the source holds several entries; their conditions need not be identical. Identical values can stand only once.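 Assay format: 96-well plates, 48-hour exposure. Here, GI50 denotes the concentration required for 50% inhibition of growth. TGI denotes the concentration required for complete inhibition of growth.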
Experiments:
Experiment in all cases: NCI tumour cell line growth inhibition, 48 h
[1] = system: DLD-1 colon
[2] = system: DMS 114 small cell lung
[3] = system: DMS 273 small cell lung
[4] = system: HOP-18 NSCLC
[5] = system: KM20L2 colon
[6] = system: SNB-78 CNS
[7] = system: MDA-N
[8] = system: XF 498 CNS
[9] = system: RXF-631 renal
[10] = system: P388 leukemia
[11] = system: SN12K1 renal

Structure (SMILES)	TGI [1] [µM]	TGI [2]	TGI [3] [µM]	TGI [4] [µM]	TGI [5]	TGI [6] [µM]	TGI [8] [µM]	TGI [9] [µM]	also measured
CN(C)CC/C(=N\Nc1ccc(Cl)c(Cl)c1)c1ccccc1	10	3.86 µM	3.23	5.76	3.17 µM	5.65	–	–	–
NC(CSc1nc2ccccn2c1[N+](=O)[O-])C(=O)O (centres undefined)	–	–	–	–	–	–	–	–	TGI [7]: > 100 µM
COc1cc2ccnc(-c3c4ccccc4c(N)c4c(OC)c(OC)ccc34)c2cc1OC	16.6	4.71 µM	3.47	–	–	18.3	6.75	–	–
Cc1ccc(S(=O)(=O)SCc2ccccc2CSS(=O)(=O)c2ccc(C)cc2)cc1	30	> 100 µM	44.2	> 100	> 100 µM	> 100	47.4	> 100	–
O=C1OC(C2=CC(=O)c3ccccc3C2=O)C(Cl)=C1Cl (centres undefined)	–	–	–	–	–	–	–	–	TGI [7]: > 100 µM
Cc1ccccc1NC(=O)C1C(=O)N(c2ccccc2C)C(=O)/C1=N\N (centres undefined)	> 100	> 100 µM	–	> 100	> 100 µM	> 100	–	> 100	–
CCC[CH2][Sn]([CH2]CCC)([O]C(=O)c1cc(OC)c(OC)cc1OC)[O]C(=O)c1cc(OC)c(OC)cc1OC	2.92	1.95 µM	3.37	–	–	2.41	2.16	2.93	GI50 [1]: 1.51 µM; GI50 [2]: 0.492 µM; GI50 [3]: 1.55 µM; GI50 [9]: 1.37 µM; GI50 [6]: 0.68 µM; GI50 [8]: 0.767 µM
COc1cc(/C=C/c2ccc(OC(C)=O)cc2)cc(OC)c1OC	> 100	94.2 µM	> 100	> 100	> 100 µM	> 100	–	> 100	–
COc1c(NC(=O)CC(C)=O)[c]([Hg][O]C(C)=O)c(OC)c(Cl)[c]1[Hg][O]C(C)=O	32.6	13.5 µM	31.9	26.5	28.5 µM	34.2	6.41	13.7	GI50 [1]: 14.2 µM; GI50 [2]: 1.61 µM; GI50 [3]: 16.4 µM; GI50 [4]: 13.6 µM; GI50 [5]: 14.6 µM; GI50 [9]: 3.02 µM; GI50 [6]: 15.5 µM; GI50 [8]: 2.55 µM
CC(=O)C1C(=O)C(=O)N(c2ccccc2N2C(=O)C(=O)C(C(C)=O)C2=O)C1=O (centres undefined)	> 100	> 100 µM	–	> 100	> 100 µM	> 100	–	> 100	–
O=C(O)CCCSc1nc2ccccc2s1	–	–	–	–	–	–	–	–	TGI [7]: > 100 µM
N#CCN1CCOCCOCCN(CC#N)CCOCCOCC1	> 100	> 100 µM	–	> 100	> 100 µM	> 100	–	> 100	–
O=C(CC(=O)Nc1ccccc1O)Nc1ccccc1O	40.3	12.6 µM	> 100	34.2	> 100 µM	> 100	–	49.9	–
CC1=C(C(=O)CC(=O)C(=O)Nc2ccccc2)Sc2ccccc2N1	> 100	> 100 µM	–	> 100	> 100 µM	> 100	> 100	> 100	–
Nc1ncnc2c(C3OC(CO)C(O)C3O)[nH]nc12 (centres undefined)	10.8	1.36 µM	1.58	0.144	8.26 µM	40.4	1.34	–	TGI [10]: 51.7 µM; TGI [11]: 1.88 µM
Cc1ccc(C2(O)CC(c3ccc([N+](=O)[O-])o3)=NN2C(=O)COc2ccccc2Cl)cc1 (centres undefined)	> 100	80.7 µM	> 100	> 100	> 60 µM	> 100	> 100	> 55.1	–
Nc1nc(N)c(N=O)c(Nc2ccc(I)cc2)n1	21.6	64.9 µM	49.7	–	80.6 µM	66.6	–	–	–
CCCCCCCCCC1C(C)c2c([nH]c3ccccc23)C2C(=O)N(c3ccccc3)C(=O)C21 (centres undefined)	30.2	28.4 µM	25	–	24.9 µM	> 100	23.2	11.7	–
O=C(O)c1ccc(NCc2nc3cc4ccccc4cc3[nH]2)cc1	–	–	–	–	–	–	–	–	TGI [7]: > 100 µM
COc1cc2c(c(OC)c1OC)-c1ccc(SC)c(=O)cc1[C@@H](NCc1cccc(C#N)c1)CC2	> 75	0.0347 µM and < 0.0075 µM	< 0.0075	–	0.0302 µM and < 0.0075 µM	–	< 0.0075	21.6	GI50 [1]: < 0.0075 µM; GI50 [2]: < 0.0075 µM; GI50 [3]: < 0.0075 µM; GI50 [5]: < 0.0075 µM; GI50 [8]: < 0.0075 µM

Structure (SMILES)	TGI [1] [µM]	TGI [2]	TGI [3] [µM]	TGI [4] [µM]	TGI [5]	TGI [6] [µM]	TGI [8] [µM]	TGI [9] [µM]	also measured
C/C(=N\NC(=O)c1ccccc1O)c1cccc(/C(C)=N/NC(=O)c2ccccc2O)n1	> 100	36.9 µM	> 100	39.4	> 100 µM	> 100	46.7	–	GI50 [1]: 2.62 µM; GI50 [3]: 20.4 µM; GI50 [4]: 1.84 µM; GI50 [5]: 1.13 µM; TGI [7]: > 100 µM; GI50 [6]: 46.2 µM
CCOC(=O)N1N=NC2C3OC(C[C@@]3(C#N)OC(C)=O)[C@H]21 (some centres undefined)	> 100	–	> 100	> 100	> 100 µM	> 100	> 100	> 100	–
S=C=NCc1ccccc1	–	–	–	–	–	–	–	–	TGI [7]: 12.4 µM
CN(C)CCNC(=O)Cn1ccc(=O)c2ccc([N+](=O)[O-])cc21	–	–	–	–	–	–	–	–	TGI [7]: > 100 µM
CCC1(C(=O)OC)CCc2c(OC)ccc(OC)c2C1=O (centres undefined)	> 100	> 100 µM	> 100	> 100	> 100 µM	> 100	> 100	> 100	–
O=C(O)C[O][Sb][O]CC(=O)O	–	–	–	–	–	–	–	–	GI50 [7]: > 100 µM; TGI [7]: > 100 µM
O=C1c2ccccc2-c2n[nH]c3cccc1c23	–	–	–	–	–	–	–	–	TGI [7]: > 100 µM
CC(=O)OCC1OC(n2c(=O)n(-c3ccccc3)c(=O)c3cc(Br)cc(Br)c32)C(OC(C)=O)C(OC(C)=O)C1OC(C)=O (centres undefined)	> 100	> 100 µM	> 100	> 100	> 100 µM	> 100	> 100	> 100	–
CC1(O)CC2(O)C=CC3=C(C(=O)c4cccc(O)c4C3=O)C2(O)C(=O)C1O (centres undefined)	2.31	3.44 µM	16.1	3.09	2.71 µM	–	–	–	TGI [7]: 3.24 µM
CC1=CC2=C(C(N)=O)C(=O)OC2(C)C(c2ccccc2)C1 (centres undefined)	–	–	–	–	–	–	–	–	TGI [7]: > 100 µM
Cc1c(C(=O)/C=C/c2ccccc2Cl)[n+](=O)c2ccccc2n1[O-]	19.8	20.1 µM	27.9	28.2	30.6 µM	44.3	–	36.5	–
COc1cc(C(=O)C/C(CCC(=O)Nc2ccc(Cl)cc2Cl)=N/NC(=O)C(N)=O)ccc1O	> 100	> 100 µM	> 100	> 100	> 100 µM	> 100	> 100	> 100	–
CC(=O)Nc1ccccc1-c1cnc2ccccc2n1	> 100	> 100 µM	–	> 100	> 100 µM	> 100	> 100	–	–
CC(C)(C)OC(=O)NC1CCC[C@H]1O (some centres undefined)	> 100	> 100 µM	> 100	–	> 100 µM	> 100	> 100	> 100	–
Nc1ccc2c(c1)CC1c3ccccc3C(C2)c2ccccc21	> 100	> 100 µM	> 100	> 100	> 100 µM	> 100	–	–	–
O=C(O)CCCCCO	> 100	> 100 µM	> 100	> 100	> 100 µM	> 100	> 100	–	–
CCOC(=O)C(Cc1ccccc1)NC(=O)OC(C)(C)C (centres undefined)	> 100	> 100 µM	> 100	–	–	> 100	> 100	> 100	–
CCc1ccc(Nc2cc(=O)[nH]c(=S)n2C)cc1	> 100	> 100 µM	> 100	> 100	> 100 µM	> 100	> 100	–	–
O=C(/C=C/c1ccccc1O)c1cccnc1	> 100	–	> 100	> 100	> 100 µM	> 100	> 100	> 100	–

Source: PubChem BioAssay (NCI)
